Literature values in patent publication US20240366754A1, “PHARMACEUTICAL COMPOSITIONS FOR DELIVERY OF VIRAL ANTIGENS AND RELATED METHODS” (BioNTech SE, priority 2021, published 2024).
“Also recorded” adds a separate entry of the source. Where two headings read alike, the source gives them in different places.

What was measured:
[1] = tested on: norovirus; conditions: in vivo

Nc1nc2c(ncn2COCCO)c(=O)[nH]1 [acyclovir]
Most common adverse effects (Intravenous formulations): phlebitis, acute renal; also recorded: failure, nausea,; also recorded: vomiting, rash | Most common adverse effects (Oral formulations): malaise, headache,; also recorded: nausea, vomiting

CC(=O)OCC(CCn1cnc2cnc(N)nc21)COC(C)=O [famciclovir]
Most common adverse effects (Oral formulations): headache, nausea,; also recorded: fatigue, diarrhea

O=C(O)P(=O)(O)O [foscarnet]
Most common adverse effects (Intravenous formulations): fever, headache,; also recorded: renal dysfunction,; also recorded: electrolyte; also recorded: abnormalities,; also recorded: nausea, vomiting; also recorded: diarrhea, anemia,; also recorded: granulocytopenia

CC(=O)Oc1ccccc1C(=O)Nc1ncc([N+](=O)[O-])s1 [nitazoxanide]
effect on norovirus illness [1]: reduce the duration of illness

CC(C)[C@H](N)C(=O)OCCOCn1cnc2c(=O)[nH]c(N)nc21 [valacyclovir]
Most common adverse effects (Oral formulations): headache, nausea,; also recorded: abdominal pain
